From article PMC7221519, “Synthesis and Evaluation of [^18F]FEtLos and [^18F]AMBF3Los as Novel ^18F-Labelled Losartan Derivatives for Molecular Imaging of Angiotensin II Type 1 Receptors” (Molecules, 2020)
Several values for one entry are separate records, joined by “and”; a condition that tells them apart may be missing. Equal entries are not always repeated. Where two headings read alike, the source gives them in different places.

Legend:
[1] = parameters: method as in earlier work; details: cited from earlier work
[2] = Log D7.4 measurement (octanol/PBS, gamma counting); format: physicochemical; details: pH 7.4, n = 3
Method: The log D7.4 values were determined according to the literature. Aliquots (2 μL) of [^18F]FEtLos and [^18F]AMBF3Los were added to polypropylene tubes containing 3 mL of octanol and 3 mL of PBS (phosphate-buffered saline). The samples were vortexed for 20 s (2 times) and centrifuged at 600× g for 15 min. Aliquots (0.1 mL) of each layer were counted in a gamma counter to determine the log D7.4 as log (counts in octanol layer/counts in PBS layer).

CHO-AT1R cells = experiment: Cell binding (uptake) assay in CHO-AT1R and CHO cells; format: cell-based, Chinese hamster; details: 60 min at 4 °C; for AT1R-specific binding to CHO-AT1R cells (blocking with losartan potassium): losartan potassium 100 µM/well
Method: The cell binding assays were performed based on previous reports with modifications. […] To saturate the AT1R, the cells of the blocking group were treated with losartan 30 min before adding the radiolabelled compound. At the end of the incubation period, the supernatant was aspirated and cells were washed six times with ice-cold PBS, and further removed with cell scraper and transferred to a gamma counter tube. The cellular activity was counted in a Cobra II gamma counter (Packard). […]
(§1) Supplemental material and methods
1. Binding assays in cells with [18F]FEtLos
CHO-AT1R and CHO cells ([…]) were plated in a 6-well plate overnight and then incubated for one hour at 4 °C with 10 µCi (370 kBq) of [18F]FEtLos per well, in presence or absence […]
(§2) At the end of the incubation period, the supernatant was aspirated and cells were washed six times with ice-cold PBS, and further removed with cell scraper and transferred to a gamma counter tube. The activity in the cells was counted in a Cobra II gamma counter (Packard). […]

renal AT1R [3] = experiment: Ex vivo µPET/CT imaging of mouse kidneys 10 min p.i.; format: in vivo, Balb/c Nude mice; details: losartan 70 mg/kg
Method: The renal AT1R binding specificity of [^18F]FEtLos was also evaluated by an ex vivo µPET/CT imaging of Balb/c Nude mice kidneys 10 min post injection (p.i.) of the tracer. […] These positive results of the ex vivo renal AT1R binding of [^18F]FEtLos might be possible due to the high AT1R density in the kidneys, that allows visualizing specific uptake in spite of the low AT1R binding affinity of [^18F]FEtLos.
Figure S12. Calibration curve for determining the molar activity of [18F]FEtLos. The curve represent the correlation between the area under the curve (AUC), recorded from the analytical HPLC profile at 254 nm, and the amount (nmol) of the product injected onto analytical HPLC.
as §1
1. Binding assays in cells with [18F]FEtLos […]
as §2
The AT1R binding specificity of [18F]FEtLos was evaluated by ex vivo µPET/CT imaging of healthy Balb/c Nude mice kidneys after ten minutes of intravenous injection of [18F]FEtLos with […]
(AT1R blocked). […] The ex vivo µPET/CT imaging was recorded using a FOV (field of view) of 60 mm and 15 min for PET scan, and 35 kV and 400 µA for CT scan.

human AT1R = target: T1, human AT1R (Homo sapiens, UniProt P30556); experiment: Competition binding assay in membranes containing human AT1R, [125I]-(Sar1,Ile8)-Angiotensin II as radioligand; details: human AT1R membranes from CHO-K1 cells, displacement of [125I]-(Sar1,Ile8)-Angiotensin II, n = 3
T1 construct: purchased Perkin Elmer (Waltham, MA, USA); host or cells: CHO-K1 cells (recombinant membrane preparation)
T1 sequence (P30556 1-359): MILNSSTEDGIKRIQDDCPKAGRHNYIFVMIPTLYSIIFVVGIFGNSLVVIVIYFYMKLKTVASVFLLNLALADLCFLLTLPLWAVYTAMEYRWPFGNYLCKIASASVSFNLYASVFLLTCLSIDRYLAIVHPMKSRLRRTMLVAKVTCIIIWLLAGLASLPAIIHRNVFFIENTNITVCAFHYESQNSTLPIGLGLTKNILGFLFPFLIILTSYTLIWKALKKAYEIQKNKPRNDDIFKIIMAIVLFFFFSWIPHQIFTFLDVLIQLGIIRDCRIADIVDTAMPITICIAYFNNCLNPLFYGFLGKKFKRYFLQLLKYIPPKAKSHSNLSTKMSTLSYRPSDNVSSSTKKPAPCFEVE
Method: The assays were performed using membranes expressing the human angiotensin II type 1 receptor from CHO-K1 cells, purchased from Perkin Elmer (Waltham, MA, USA). […] The hot ligand [^125I]-(Sar1,Ile8)-Angiotensin II (81.4 TBq/mmol) was also purchased from Perkin Elmer (USA). The Multiscreen MSFCN6B50 96-well plates were used for this assay. The procedure was based on the recommended assay conditions from Perkin Elmer (Waltham, MA, USA) and procedures previously described for other AT1R ligands [22, 23]. Briefly, the 96-well plate was preincubated for 1–2 h at 4 °C with 200 μL of 0.5% BSA (Bovine Serum Albumin) followed by washing (3 times) with an assay buffer. Next, 150 µL of the membranes, diluted (1:150) in the buffer assay (50 mM Tris-HCl pH 7.4, 5 mM MgCl2) to a final concentration of 0.6 μg/well, were added to the wells followed by the addition of cold (25 µL) and hot ligand (25 µL). The plate was incubated for 60 min at 27 °C under stirring and at the end of the experiment all wells were washed (9 times) with ice-cold wash buffer (50 mM Tris-HCl pH 7.4) using vacuum. Afterwards, membranes were punched out and counted in a Perkin Elmer (Waltham, MA, USA) Wizard2 2480 automatic gamma counter. The Ki values were calculated by a non-linear curve fitting using GraphPad Prism 7.01 Software (San Diego, CA, USA). The experiment was done in triplicate.

renal AT1R [4] = experiment: Autoradiography of mouse kidneys after 60-min dynamic µPET scan; format: in vivo, NOD.Cg-Prkdc^scidIl2rg^tm1Wjl/SzJ mice; details: autoradiography after 60-min dynamic µPET scan, co-injection of losartan potassium
Text: Kidneys harvested from healthy NSG mice (after the biodistribution studies), were rinsed in PBS and frozen in isopentane/dry-ice bath. Ten μm-thick slides of the kidneys were obtained using a cryostat (Leica, Wetzlar, Germany), and thaw-mounted onto Superfrost Plus microscope slides (Fischerbrand from Thermo Fisher Scientific, Toronto, ON, Canada), following general procedures of the lab. Afterwards, kidney slides were exposed to a phosphor screen overnight and imaged on a Typhoon FLA 9500 scanner (GE Healthcare, Chicago, IL, USA).

renal AT1R [5] = experiment: Dynamic µPET scan of healthy NSG mice; format: in vivo, NOD.Cg-Prkdc^scidIl2rg^tm1Wjl/SzJ mice; details: early time points (10, 15 and 20 min), losartan 18 mg/kg
Method: (§3) The in vivo AT1R binding specificity of [^18F]AMBF3Los was evaluated in healthy mice by a dynamic PET scan. Healthy NSG mice were injected in the tail vein with 6 ± 1 MBq (170 ± 38 μCi) of [^18F]AMBF3Los and a sixty-minute dynamic PET scans was carried out on a μPET/CT scanner (Inveon, Siemens) following procedures reported previously. Alternatively, [^18F]AMBF3Los was concomitantly injected with the AT1R blocker losartan (18 mg/kg) before the dynamic acquisition. Before and during the acquisition, mice were sedated with a continuous flow of isoflurane anesthesia (2% isoflurane in oxygen). The µPET/CT images were analyzed with PMOD v3.3 software (PMOD Technologies, Zürich, Switzerland). An elliptical volume-of-interest that enclosed the entire kidney was positioned manually on the PET images for the determination of the kidney volume. Then, 3-dimensional isocontours were drawn automatically. For each VOI, the percentage of the injected dose in the region of interest, divided by the injected dose per animal weight (% ID/g) could be calculated directly using the output parameters from the μPET.

[6] = Biodistribution at 60 min p.i. in healthy NSG mice; format: in vivo, NOD.Cg-Prkdc^scidIl2rg^tm1Wjl/SzJ mice; details: n = 3
Method: Experiments involving animals were approved by the Animal Ethics Committee of the University of British Columbia (Protocol number: A16-0128). Immunodeficient NOD.Cg-Prkdc^scidII2rg^tm1Wjl/SzJ (NSG) mice were obtained from an in-house breeding colony at the Animal Resource Centre at BC Cancer Research Facility. Mice were always divided into baseline and AT1R blocked groups to assess the AT1R binding specificity of [^18F]AMBF3Los with the co-injection of the AT1R blocker losartan (18 mg/kg, dissolved in PBS).
as §3
After the sixty-minute dynamic PET scans, anesthetized mice were euthanized by carbon dioxide asphyxiation and blood, fat, testis, intestines, stomach, spleen, liver, pancreas, adrenal glands, kidneys, lungs, heart, muscle, bone and brain were harvested, rinsed in PBS, weighted and counted in a Perkin Elmer (Waltham, MA, USA) Wizard2 2480 automatic gamma counter to quantify the percent of injected dose per gram of tissue (% ID/g).

rat kidney AT1R = target: rat kidney AT1R; parameters: method as in PMID 27199365; details: read-out: dissociation constant, KD; cited from earlier work
[7] = parameters: method as in PMID 27199365; details: in vivo, 60 min; cited from earlier work
[8] = AT1R Blocking (co-injection of losartan 18 mg/kg)

For `CCCCc1nc(Cl)c(CO)n1Cc1ccc(-c2ccccc2-c2nn[nH]n2)cc1` [Losartan potassium, 2-butyl-4-chloro-5-hydroxymethyl-1-[(2′-(1H-tetrazol-5-yl)biphenyl-4-yl)methyl]-1H-imidazole], the “log D7.4” value [1] is listed as 1.7.
For `CCCCc1nc(Cl)c(COCC[18F])n1Cc1ccc(-c2ccccc2-c2nnn[nH]2)cc1` [[^18F]FEtLos, [^18F]fluoroethyl-losartan], the logD ([2]; pH 7.4, octanol/PBS) was 0.21 ± 0.09, the “AT1R-specific binding to CHO-AT1R cells (blocking with losartan potassium)” value (“AT1R-specific binding to CHO-AT1R cells” for short) (CHO-AT1R cells) was “did not show any specific AT1R binding” and the “AT1R-specific binding to CHO-AT1R cells” value (CHO-AT1R cells; listed as [18F]FEtLos) was “non-significant blocking effect”. The “kidney uptake in ex vivo µPET/CT, baseline versus co-injected losartan potassium” value (renal AT1R [3]) was “high uptake in the kidneys (baseline), which was blocked”.
Compound `CCCCc1nc(Cl)c(COCCF)n1Cc1ccc(-c2ccccc2-c2nnn[nH]2)cc1` [FEtLos, 2-butyl-4-chloro-5-(2-fluoroethoxy)methyl-1-[(2′-(1H-tetrazol-5-yl)biphenyl-4-yl)methyl]-1H-imidazole] has a Ki (human AT1R) of 2200 ± 200 nM.
In the case of `CCCCc1nc(Cl)c(Cn2cc(C[N+](C)(C)C[B-](F)(F)[18F])nn2)n1Cc1ccc(-c2ccccc2-c2nnn[nH]2)cc1` [[^18F]AMBF3Los, [^18F]ammoniomethyltrifluoroborate-losartan], the “renal cortex activity, times smaller in mouse blocked with losartan potassium versus unblocked” value (renal AT1R [4]) is reported as “approximately 5 times”, the “log D7.4” value [2] is reported as −0.43 ± 0.02 and −0.4 and the “renal cortex uptake in dynamic µPET with co-injected losartan potassium versus baseline” value (renal AT1R [5]) is reported as “reduced”. For the same compound, the “in vitro cellular uptake in CHO-AT1R cells compared to CHO cells” value (CHO-AT1R cells; 10 µCi per well) was “higher uptake”, the “AT1R-specific binding to CHO-AT1R cells” value (CHO-AT1R cells) was “receptor-specific” and the “Uptake, Adrenal glands” value [6, 8] was 0.11 ± 0.06 % ID/g. The “Uptake, Blood” value [6, 8] was 0.08 ± 0.08 % ID/g, the “Uptake, Bone” value [6, 8] was 0.11 ± 0.03 % ID/g and the “Uptake, Brain” value [6, 8] was 0.005 ± 0.004 % ID/g. The “Uptake, Fat” value [6, 8] was 0.008 ± 0.002 % ID/g, the “Uptake, Heart” value [6, 8] was 0.04 ± 0.03 % ID/g and the “Uptake, Intestines” value [6, 8] was 62 ± 3 % ID/g. For the same compound, the “Uptake, Kidneys” value [6, 8] was 1.9 ± 1.3 % ID/g, the “Uptake, Liver” value [6, 8] was 0.6 ± 0.3 % ID/g and the “Uptake, Lungs” value [6, 8] was 0.08 ± 0.04 % ID/g. For the same compound, the “Uptake, Muscle” value [6, 8] was 0.05 ± 0.04 % ID/g, the “Uptake, Pancreas” value [6, 8] was 0.07 ± 0.06 % ID/g and the “Uptake, Spleen” value [6, 8] was 0.08 ± 0.03 % ID/g. The “Uptake, Stomach” value [6, 8] was 2 ± 2 % ID/g, the “Uptake, Testis” value [6, 8] was 0.029 ± 0.008 % ID/g and the “Uptake, Adrenal glands” value ([6]; Baseline) was 0.1 ± 0.1 % ID/g. The “Uptake, Blood” value ([6]; Baseline) was 0.05 ± 0.03 % ID/g, the “Uptake, Bone” value ([6]; Baseline) was 0.11 ± 0.06 % ID/g and the “Uptake, Brain” value ([6]; Baseline) was 0.006 ± 0.005 % ID/g. The “Uptake, Fat” value ([6]; Baseline) was 0.011 ± 0.004 % ID/g, the “Uptake, Heart” value ([6]; Baseline) was 0.03 ± 0.01 % ID/g and the “Uptake, Intestines” value ([6]; Baseline) was 63 ± 9 % ID/g. For the same compound, the “Uptake, Kidneys” value ([6]; Baseline) was 3.5 ± 1.2 % ID/g, the “Uptake, Liver” value ([6]; Baseline) was 0.5 ± 0.5 % ID/g and the “Uptake, Lungs” value ([6]; Baseline) was 0.06 ± 0.03 % ID/g. The “Uptake, Muscle” value ([6]; Baseline) was 0.02 ± 0.01 % ID/g, the “Uptake, Pancreas” value ([6]; Baseline) was 0.05 ± 0.03 % ID/g and the “Uptake, Spleen” value ([6]; Baseline) was 0.2 ± 0.1 % ID/g. The “Uptake, Stomach” value ([6]; Baseline) was 0.06 ± 0.05 % ID/g and the “Uptake, Testis” value ([6]; Baseline) was 0.03 ± 0.01 % ID/g.
`CCCCc1nc(Cl)c(Cn2cc(C[N+](C)(C)C[B-](F)(F)F)nn2)n1Cc1ccc(-c2ccccc2-c2nnn[nH]2)cc1` [AMBF3Los, 2-butyl-4-chloro-5-[((1H-1,2,3-triazol-4-yl)-(N,N-dimethyl-ammoniomethyl-trifluoroborate)methyl)methyl]-1-[(2′-(1H-tetrazol-5-yl)biphenyl-4-yl)methyl]-1H-imidazole] showed a Ki (human AT1R) of 7.9 nM.
For `CCCCc1nc(Cl)c(Cn2cc(CCCOc3cccnc3[18F])nn2)n1Cc1ccc(-c2ccccc2-c2nnn[nH]2)cc1` [[^18F]FPyKYNE-losartan], the Kd (rat kidney AT1R) is listed as 49.4 nM and the liver uptake [7] is listed as 66.7 % ID/g.
